Measurements from PMC11025371, “Alcohols as inhibitors of ammonia oxidizing archaea and bacteria” (FEMS Microbiology Letters, 2023).
Converted amounts (≈) assume the structure as drawn. “Also recorded” adds a separate entry of the source. Read-outs that look alike come from different tables or passages of the source. Marks after values point to notes of the source that are not given here.

Experiments:
N. europaea [1] = assay: Whole-cell activity assay, inhibition of ammonia oxidation (nitrite accumulation from 500 µM NH4Cl); type: cell-based, Nitrosomonas europaea; details: 28°C; for Lowest fully inhibitory concentration (I) for ammonia oxidation: full inhibition = lack of sustained nitrite accumulation; for IC50: nitrite accumulation over 1 h, read-out: Half-maximal inhibitory concentration (IC50) of ammonia oxidation
Description: (§1) Nitrosomonas europaea and ‘Ca. N. franklandus’ C13 cells were harvested at mid-exponential phase (∼800 µM NO2^− accumulated) by filtration onto 0.22 µm pore-size membrane filter (PES, Merck Millipore). Cells were then washed and resuspended in FWM salts (i.e. FWM without added NH4Cl and other medium components as described above) buffered with 10 mM HEPES buffer (pH 7). Cells were incubated at 28°C for N. europaea and 37°C for ‘Ca. N. franklandus’ C13 for ∼1 h until endogenous respiration ceased.
(§2) . Although these alcohols were added at concentrations above their solubility for the consistency of the experimental design, the limit of solubility was considered when evaluating the results. Reactions were initiated by addition of 500 µM NH4Cl or 200 µM NH2OH. Vials containing N. europaea and ‘Ca. Nitrosocosmicus franklandus’ C13 cells were incubated at 28°C and 37°C, respectively. The activity of cultures was followed by monitoring nitrite accumulation over 1 h, measured in 15 min intervals using Griess reagent in a 96-well plate format as previously described (Lehtovirta-Morley et al. [2014]). The final cell concentration in the activity assays was ∼10^7 cells ml^−1 for both N. europaea and ‘Ca. N. franklandus’ C13, which equate to ∼1.2 and 5.55 µg protein ml^−1, respectively. Cell counts were performed as previously described (Oudova-Rivera et al. [2023]). Protein concentrations were determined using a Pierce bicinchoninic acid (BCA) protein assay kit (Thermo Scientific) according to the manufacturer instructions. One-way ANOVA with LSD post-hoc tests were performed using SPSS statistics software version 27 (IBM).
The reaction velocity of ammonia and hydroxylamine oxidation was determined by measuring the rate of nitrite accumulation over time (µM min^−1). The logarithm of the reaction velocity, calculated as a percentage of the non-inhibited control, was plotted against the inhibitor concentration resulting in a linear relationship (Figs. S1 and S2). The half-maximal inhibitory concentration (IC50) was calculated from the slope and y-axis intercept over the linear part of the curve following the formula: […]
(§3) Inhibition by alcohols was tested at a fixed substrate concentration of 500 µM NH4Cl or 200 µM hydroxylamine for both N. europaea and ‘Ca. N. franklandus’ C13. Ammonia and hydroxylamine concentrations were selected based on previously published Km values and activity assays (Suzuki et al. [1974], Martens-Habbena et al. [2009], Oudova-Rivera et al. [2023]). Fully inhibitory concentrations of alcohols were determined experimentally with a series of activity assays, gradually narrowing down the range of alcohol concentrations applied. Full inhibition was defined as a lack of sustained nitrite accumulation, where there was either no nitrite accumulation at all, or where a minor accumulation of nitrite was initially detected but ceased (potentially due to a delayed effect of the inhibitor).

‘Ca. N. franklandus’ C13 [2] = assay: as above; type: cell-based, ‘Candidatus Nitrosocosmicus franklandus’ C13; details: for Lowest fully inhibitory concentration (I) for ammonia oxidation / IC50: 37°C; for Lowest fully inhibitory concentration (I) for ammonia oxidation: full inhibition = lack of sustained nitrite accumulation; for IC50: nitrite accumulation over 1 h, read-out: Half-maximal inhibitory concentration (IC50) of ammonia oxidation
Description: as §1
as §2, with “Although” for “. Although”
The reaction velocity of ammonia and hydroxylamine oxidation was determined by measuring the rate of nitrite accumulation over time (µM min^−1). […] The half-maximal inhibitory concentration (IC50) was calculated from the slope and y-axis intercept over the linear part of the curve following the formula: […]
as §3
(§4) Inhibition of ammonia oxidation was tested using whole-cell activity assays with the concentration of alcohols ranging from 2 to 100 mM and fixed substrate ammonia concentration of 500 µM NH4Cl. […] Because hydroxylamine, the product of ammonia oxidation, is a pathway intermediate downstream of AMO, any inhibitors specific to AMO should not interfere with hydroxylamine oxidation.

N. europaea [3] = test system: N. europaea; design: method as in Hooper and Terry [1973]; details: ref Hooper and Terry [1973]; cited from earlier work
N. europaea [4] = assay: Whole-cell activity assay with hydroxylamine as substrate (specificity of AMO inhibition); type: cell-based, Nitrosomonas europaea; details: 200 µM hydroxylamine; for Rate of nitrite accumulation from hydroxylamine oxidation compared to the control: alcohol at its lowest concentration fully inhibitory to ammonia oxidation; for Specificity of inhibition to AMO (effect on hydroxylamine oxidation): fully inhibitory alcohol concentration
Description: as §1
as §2, with “Although” for “. Although”
as §3, §4

‘Ca. N. franklandus’ C13 [5] = assay: as above; type: cell-based, ‘Candidatus Nitrosocosmicus franklandus’ C13; details: 200 µM hydroxylamine; for Rate of nitrite accumulation from hydroxylamine oxidation compared to the non-inhibited control: alcohol at its lowest concentration fully inhibitory to ammonia oxidation; for Specificity of inhibition to AMO (effect on hydroxylamine oxidation): fully inhibitory alcohol concentration
Description: as §1
as §2, with “Although” for “. Although”
as §3, §4

physchem = details: water

Row | SMILES | Lowest fully inhibitory concentration (I) for ammonia oxidation (N. europaea [1]) | IC50 (N. europaea [1]) | Lowest fully inhibitory concentration (I) for ammonia oxidation (‘Ca. N. franklandus’ C13 [2]) | IC50 (‘Ca. N. franklandus’ C13 [2]) | Concentration giving maximal inhibition (N. europaea [3]) | Rate of nitrite accumulation from hydroxylamine oxidation compared to the control (N. europaea [4]) | Rate of nitrite accumulation from hydroxylamine oxidation compared to the non-inhibited control (‘Ca. N. franklandus’ C13 [5]) | Specificity of inhibition to AMO (effect on hydroxylamine oxidation) (N. europaea [4]) | Specificity of inhibition to AMO (effect on hydroxylamine oxidation) (‘Ca. N. franklandus’ C13 [5]) | IC50 (N. europaea [1]; Nitrosomonas europaea) | solubility (physchem) | Specificity of inhibition to AMO (effect on hydroxylamine oxidation) (‘Ca. N. franklandus’ C13 [5]; listed as methanol) | inhibition at 2000 µM (‘Ca. N. franklandus’ C13 [2]; 2 mM octanol (limit of solubility)) | Lowest fully inhibitory concentration (I) for ammonia oxidation (‘Ca. N. franklandus’ C13 [2]; listed as octanol)
1 | CCCO [1-Propanol, 1-propanol] | 100 mM | 13.6 mM | 20 mM | 6.2 mM | 0.33 M | – | – | – | – | – | – | – | – | –
2 | CC(C)O [2-Propanol, 2-propanol] | 100 mM | 32.6 mM | 40 mM | 26.8 mM | 0.13 M | – | – | – | – | – | – | – | – | –
3 | CCCCO [Butanol, 1-butanol] | 100 mM | 7.6 mM | 40 mM | 4 mM | – | 83% ± 1.8% | 55% ±2.3% | – | – | – | – | – | – | –
4 | CCO [Ethanol, ethanol] | 90 mM | 20.9 mM | 80 mM | 7.2 mM | – | – | – | specific inhibitor; also recorded: specific inhibitors of the AMO | did not interfere with hydroxylamine oxidation; also recorded: specific inhibitor; also recorded: specific inhibitors of the AMO | – | – | – | – | –
5 | CCCCCCCO [Heptanol, 1-heptanol] | 17 mM | – | 17 mM | 3.6 mM | – | no activity detected | 10% ± 0.5% | – | – | 4.5 mM | 17 mM (≈ 1980 µg/mL) | – | – | –
6 | CCCCCCO [Hexanol, 1-hexanol] | 20 mM | – | 15 mM | 2.4 mM | – | 18% ± 5.6% | 13% ± 0.9% | – | – | 2.2 mM | – | – | – | –
7 | CO [Methanol] | 10 mM | 0.31 mM | 8 mM | 0.19 mM | – | – | not affected | specific inhibitors of the AMO | specific inhibitors of the AMO | – | – | did not interfere with hydroxylamine oxidation | – | –
8 | CCCCCCCCO [Octanol, 1-octanol] | 20** mM | – | 10** mM | – | – | no activity detected | 33% ± 1.4% | – | – | – | 2 mM (≈ 260 µg/mL) | – | 39% | 10 mM
9 | CCCCCO [Pentanol, 1-pentanol] | 100 mM | – | 20 mM | 3.6 mM | – | 27% ± 2.6% | 53% ± 2.8% | – | – | 5.3 mM | – | – | – | –
